# Measurements taken from US20260315464A1, “COMPOSITIONS, METHODS, AND SYSTEMS FOR MODULATING SPLICING OF MSH3” (REVIR THERAPEUTICS, INC., priority 2023, published 2026).
# System: MSH3
# Assay: QPCR assay for levels of MSH3 upon compound treatment in HEK293T or AD293 cells (fold-change of MSH3 transcript, EC50 of MSH3 downregulation; total MSH3 exons 13/14, exons 20/21; Table 8)
# Format: cell-based
# Settings: for mrna remaining at 1 µM / mrna remaining at 10 µM: Homo sapiens, fold-change of the MSH3 transcript, normalized to GAPDH; for mrna remaining at 1 µM: 1 μM compound; for mrna remaining at 10 µM: 10 μM compound; for EC50: EC50 of MSH3 downregulation, XtalPi
# Experimental: HEK293T or AD293 cells were treated with Compound 274 at 1 μM and […]. RNA, cDNA and qPCR was prepared using TaqMan Cells-to-CT Express kit (ThermoFisher Scientific). Taqman assays (ThermoFisher Scientific) were used for quantification of total MSH3 exons 13/14 (cat #4351372, ID #: Hs00988993_ml), total MSH3 exons 20/21 (cat #4351372, ID #: Hs00989000_ml), exon 13/PE14A (Fwd: 5′-[…]; Rev: 5′-[…]; Probe: 5′-[…]) and exon 20/PE21A (Fwd: 5′-[…]; Rev: 5′-[…]; Probe: 5′-[…]) mRNA expression. Taqman GAPDH (cat #4448489, ID #: Hs02758991_g1) was used as a reference for data normalization.
EC50,SMILES,mrna remaining at 1 µM,mrna remaining at 10 µM
,"CC(C)(O)Cn1cc(-c2cc3c(cn2)CN(c2ccc(OC4CC(C)(C)NC(C)(C)C4)nn2)C3=O)cn1 [Compound 21, 6-(1-(2-hydroxy-2-methylpropyl)-1H-pyrazol-4-yl)-2-(6-((2,2,6,6-tetramethylpiperidin-4-yl)oxy)pyridazin-3-yl)-2,3-dihydro-1H-pyrrolo[3,4-c]pyridin-1-one]",54%,58%
,"Cc1nn(C)cc1-c1cc2c(cn1)CN(c1ccc(N(C)C3CC(C)(C)NC(C)(C)C3)nn1)C2=O [Compound 51, 6-(1,3-dimethyl-1H-pyrazol-4-yl)-2-(6-(methyl(2,2,6,6-tetramethylpiperidin-4-yl)amino)pyridazin-3-yl)-2,3-dihydro-1H-pyrrolo[3,4-c]pyridin-1-one]",94%,26%
,"Cc1nn(C)cc1-c1cc2c(cn1)CN(c1cnc(N(C)[C@H]3C[C@]4(C)CC[C@](C)(C3)N4)nn1)C2=O [Compound 55, 6-(1,3-dimethyl-1H-pyrazol-4-yl)-2-(3-(((1R,3s,5S)-1,5-dimethyl-8-azabicyclo[3.2.1]octan-3-yl)(methyl)amino)-1,2,4-triazin-6-yl)-2,3-dihydro-1H-pyrrolo[3,4-c]pyridin-1-one]",56%,20%
,"Cc1nn(C)cc1-c1cc2c(cn1)CN(c1ccc(OC3CC(C)(C)NC4(CC4)C3)nn1)C2=O (centres unmarked) [Compound 59, 6-(1,3-dimethyl-1H-pyrazol-4-yl)-2-(6-((5,5-dimethyl-4-azaspiro[2.5]octan-7-yl)oxy)pyridazin-3-yl)-2,3-dihydro-1H-pyrrolo[3,4-c]pyridin-1-one]",101%,29%
,"CN(c1ccc(N2Cc3cnc(-c4cn(C)nc4C(F)(F)F)cc3C2=O)nn1)[C@H]1C[C@]2(C)CC[C@](C)(C1)N2 [Compound 61, 2-(6-(((1R,3s,5S)-1,5-dimethyl-8-azabicyclo[3.2.1]octan-3-yl)(methyl)amino)pyridazin-3-yl)-6-(1-methyl-3-(trifluoromethyl)-1H-pyrazol-4-yl)-2,3-dihydro-1H-pyrrolo[3,4-c]pyridin-1-one]",44%,18%
690 nM,"Cc1nc(C)c(-c2cc3c(cn2)CN(c2ccc(N(C)[C@H]4C[C@]5(C)CC[C@](C)(C4)N5)nn2)C3=O)s1 [Compound 62, 2-(6-(((1R,3s,5S)-1,5-dimethyl-8-azabicyclo[3.2.1]octan-3-yl)(methyl)amino)pyridazin-3-yl)-6-(2,4-dimethylthiazol-5-yl)-2,3-dihydro-1H-pyrrolo[3,4-c]pyridin-1-one]",18%,8%
885 nM,"Cc1nc(C)c(-c2cc3c(cn2)CN(c2ccc(O[C@H]4C[C@]5(C)CC[C@](C)(C4)N5)nn2)C3=O)s1 [Compound 69, 2-(6-(((1R,3s,5S)-1,5-dimethyl-8-azabicyclo[3.2.1]octan-3-yl)oxy)pyridazin-3-yl)-6-(2,4-dimethylthiazol-5-yl)-2,3-dihydro-1H-pyrrolo[3,4-c]pyridin-1-one]",30%,11%
,"CN(c1ccc(N2Cc3cnc(-c4cnn(C)n4)cc3C2=O)nn1)[C@H]1C[C@]2(C)CC[C@](C)(C1)N2 [Compound 70, 2-(6-(((1R,3s,5S)-1,5-dimethyl-8-azabicyclo[3.2.1]octan-3-yl)(methyl)amino)pyridazin-3-yl)-6-(2-methyl-2H-1,2,3-triazol-4-yl)-2,3-dihydro-1H-pyrrolo[3,4-c]pyridin-1-one]",139%,56%
,"CN(c1ncc(N2Cc3cnc(-c4cnn(C)n4)cc3C2=O)nn1)[C@H]1C[C@]2(C)CC[C@](C)(C1)N2 [Compound 73, 2-(3-(((1R,3s,5S)-1,5-dimethyl-8-azabicyclo[3.2.1]octan-3-yl)(methyl)amino)-1,2,4-triazin-6-yl)-6-(2-methyl-2H-1,2,3-triazol-4-yl)-2,3-dihydro-1H-pyrrolo[3,4-c]pyridin-1-one]",85%,70%
,"Cn1cc(-c2cc3c(cn2)CN(c2ccc(O[C@H]4C[C@]5(C)CC[C@](C)(C4)N5)nn2)C3=O)c(C(F)(F)F)n1 [Compound 74, 2-(6-(((1R,3s,5S)-1,5-dimethyl-8-azabicyclo[3.2.1]octan-3-yl)oxy)pyridazin-3-yl)-6-(1-methyl-3-(trifluoromethyl)-1H-pyrazol-4-yl)-2,3-dihydro-1H-pyrrolo[3,4-c]pyridin-1-one]",96%,33%
,"Cc1nn(C)cc1-c1cc2c(cn1)CN(c1ccc(OC3CC(C)(C)NC(C)(C)C3)nn1)C2=O [Compound 76, 6-(1,3-dimethyl-1H-pyrazol-4-yl)-2-(6-((2,2,6,6-tetramethylpiperidin-4-yl)oxy)pyridazin-3-yl)-2,3-dihydro-1H-pyrrolo[3,4-c]pyridin-1-one]",98%,20%
,"Cc1nn(C)cc1-c1cc2c(cn1)CN(c1ccc(O[C@@H]3C[C@@]4(C)CC[C@](C)(N4)[C@@H]3F)nn1)C2=O [Compound 79, 6-(1,3-dimethyl-1H-pyrazol-4-yl)-2-(6-(((1S,2S,3R,5R)-2-fluoro-1,5-dimethyl-8-azabicyclo[3.2.1]octan-3-yl)oxy)pyridazin-3-yl)-2,3-dihydro-1H-pyrrolo[3,4-c]pyridin-1-one]",92%,31%
,"Cc1nn(C)cc1-c1cc2c(c(Cl)n1)CN(c1ccc(N(C)[C@H]3C[C@]4(C)CC[C@](C)(C3)N4)nn1)C2=O [Compound 90, 4-chloro-6-(1,3-dimethyl-1H-pyrazol-4-yl)-2-(6-(((1R,3s,5S)-1,5-dimethyl-8-azabicyclo[3.2.1]octan-3-yl)(methyl)amino)pyridazin-3-yl)-2,3-dihydro-1H-pyrrolo[3,4-c]pyridin-1-one]",38%,18%
,"Cn1cc(-c2cc3c(cn2)CN(c2ccc(OC4CC(C)(C)NC(C)(C)C4)nn2)C3=O)c(F)n1 [Compound 91, 6-(3-fluoro-1-methyl-1H-pyrazol-4-yl)-2-(6-((2,2,6,6-tetramethylpiperidin-4-yl)oxy)pyridazin-3-yl)-2,3-dihydro-1H-pyrrolo[3,4-c]pyridin-1-one]",85%,74%
,"Cc1nn(C)cc1-c1cc2c(c(Cl)n1)CN(c1ccc(O[C@H]3C[C@]4(C)CC[C@](C)(C3)N4)nn1)C2=O [Compound 93, 4-chloro-6-(1,3-dimethyl-1H-pyrazol-4-yl)-2-(6-(((1R,3s,5S)-1,5-dimethyl-8-azabicyclo[3.2.1]octan-3-yl)oxy)pyridazin-3-yl)-2,3-dihydro-1H-pyrrolo[3,4-c]pyridin-1-one]",91%,72%
,"Cc1nn(C)cc1-c1cc2c(cn1)CN(c1ccc(O[C@H]3C[C@]4(C)CC[C@](C)(C3)N4C)nn1)C2=O [Compound 94, 6-(1,3-dimethyl-1H-pyrazol-4-yl)-2-(6-(((1R,3s,5S)-1,5,8-trimethyl-8-azabicyclo[3.2.1]octan-3-yl)oxy)pyridazin-3-yl)-2,3-dihydro-1H-pyrrolo[3,4-c]pyridin-1-one]",106%,79%
,"Cc1nn(C)nc1-c1cc2c(cn1)CN(c1ccc(O[C@H]3C[C@]4(C)CC[C@](C)(C3)N4)nn1)C2=O [Compound 96, 6-(2,5-dimethyl-2H-1,2,3-triazol-4-yl)-2-(6-(((1R,3s,5S)-1,5-dimethyl-8-azabicyclo[3.2.1]octan-3-yl)oxy)pyridazin-3-yl)-2,3-dihydro-1H-pyrrolo[3,4-c]pyridin-1-one]",79%,119%
,"CC[C@]12CC[C@](C)(C[C@@H](Oc3ccc(N4Cc5cnc(-c6cn(C)nc6C)cc5C4=O)nn3)C1)N2 [Compound 98, 6-(1,3-dimethyl-1H-pyrazol-4-yl)-2-(6-(((1S,3R,5R)-1-ethyl-5-methyl-8-azabicyclo[3.2.1]octan-3-yl)oxy)pyridazin-3-yl)-2,3-dihydro-1H-pyrrolo[3,4-c]pyridin-1-one]",83%,25%
,"Cn1cc(-c2cc3c(cn2)CN(c2ccc(O[C@H]4C[C@]5(C)CC[C@](C)(C4)N5)nn2)C3=O)cn1 [Compound 99, 2-(6-(((1R,3s,5S)-1,5-dimethyl-8-azabicyclo[3.2.1]octan-3-yl)oxy)pyridazin-3-yl)-6-(1-methyl-1H-pyrazol-4-yl)-2,3-dihydro-1H-pyrrolo[3,4-c]pyridin-1-one]",90%,86%
,"CC[C@]12CC[C@](CC)(C[C@@H](Oc3ccc(N4Cc5cnc(-c6cn(C)nc6C)cc5C4=O)nn3)C1)N2 [Compound 100, 2-(6-(((1R,3s,5S)-1,5-diethyl-8-azabicyclo[3.2.1]octan-3-yl)oxy)pyridazin-3-yl)-6-(1,3-dimethyl-1H-pyrazol-4-yl)-2,3-dihydro-1H-pyrrolo[3,4-c]pyridin-1-one]",65%,11%
,"Cn1ncc(-c2cc3c(c(Cl)n2)CN(c2ccc(O[C@H]4C[C@]5(C)CC[C@](C)(C4)N5)nn2)C3=O)n1 [Compound 106, 4-chloro-2-(6-(((1R,3s,5S)-1,5-dimethyl-8-azabicyclo[3.2.1]octan-3-yl)oxy)pyridazin-3-yl)-6-(2-methyl-2H-1,2,3-triazol-4-yl)-2,3-dihydro-1H-pyrrolo[3,4-c]pyridin-1-one]",121%,130%
